59 sequences from the supplement of paper PMC11208160 can be followed below.

The data set is described as follows: recombinant barcode read abundance after kanamycin selection (control-corrected) (log10(CPM+1)); higher = more efficient recombination; sequences stand for … in AGTGCAGAGAAAATCGGCCAGTTTTCTCTGCCTGCAGTCCGCATGCCGT…AGATTTATGCAGCGGACTGCCTTTCTCCCAAAGTGATAAACCGGACAGTATCATGGACCGGTTTTCCCGGTAATCCGTATTTGCAAGGTTGGTTTCACT; site = the 11-nt target. The method in brief: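 Oligos holding a promoter, target, barcode and the J23119-driven first 104 bases of the bridge RNA were Gibson-cloned into a vector that supplied the other 73 bp plus a T7-inducible recombinase. This library was co-electroporated with a donor plasmid into E. coli. Two replicates went on chloramphenicol/ampicillin LB agar (control) and two on chloramphenicol/ampicillin/kanamycin with 0.1 mM IPTG. Recombination efficiency is read from averaged, control-corrected barcode counts per million at recombinant junctions, reported as log10(CPM+1).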
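Note: IS621 recombinase and bridge RNA in Escherichia coli cells.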

As to “GTAAATCCTTGGGTTCTAACCTGTTGCCT (site ATAAATCCTAG)”, the “recombinant barcode read abundance (log10)” value came out at 0.141.

For the sequence “GTAAATCCTTGGGTTCTAACCTGTTGCCT (site CTAAATCCTAG)”, the “recombinant barcode read abundance (log10)” value came out at 0.222.

In the case of “GTAAATCCTTGGGTTCTAACCTGTTGCCT (site GTAAATCCTAG)”, the “recombinant barcode read abundance (log10)” value came to 1.01.

Turning to “GTAAATCCTTGGGTTCTAACCTGTTGCCT (site TTAAATCCTAG)”, the “recombinant barcode read abundance (log10)” value was determined as 0.132.

As for “GTAAATGCTTGGGTTCTAACCTGTTGCCT (site GTAAATGCTAG)”, the “recombinant barcode read abundance (log10)” value was determined as 1.36.

For the sequence “GTAAATGCTTGGGTTCTAACCTGTTGCCT (site GTAACTGCTAG)”, the “recombinant barcode read abundance (log10)” value came to 0.0397.

As for “GTAAATGCTTGGGTTCTAACCTGTTGCCT (site GTAAGTGCTAG)”, the “recombinant barcode read abundance (log10)” value worked out at 0.0927.

Turning to “GTAAATGCTTGGGTTCTAACCTGTTGCCT (site GTAATTGCTAG)”, the “recombinant barcode read abundance (log10)” value was determined as 0.0782.

Consider “GTAACCGCTTGGGTTCTAACCTGTTGCCT (site GTAACCGCTAG)”, for which the “recombinant barcode read abundance (log10)” value amounted to 1.64.

“GTAACCGCTTGGGTTCTAACCTGTTGCCT (site GTCACCGCTAG)”: the “recombinant barcode read abundance (log10)” value amounted to 0.228.

On to “GTAACCGCTTGGGTTCTAACCTGTTGCCT (site GTGACCGCTAG)”, for which the “recombinant barcode read abundance (log10)” value is 0.115.

As for “GTAACCGCTTGGGTTCTAACCTGTTGCCT (site GTTACCGCTAG)”, the “recombinant barcode read abundance (log10)” value was 0.432.

As for “GTAACCTCTTGGGTTCTAACCTGTTGCCA (site GTAACCTCTAG)”, the “recombinant barcode read abundance (log10)” value is 0.904.

With “GTAACCTCTTGGGTTCTAACCTGTTGCCA (site GTAACCTCTCG)”, the “recombinant barcode read abundance (log10)” value was determined as 0.

Regarding “GTAACCTCTTGGGTTCTAACCTGTTGCCA (site GTAACCTCTGG)”, the “recombinant barcode read abundance (log10)” value was determined as 0.0508.

As to “GTAACCTCTTGGGTTCTAACCTGTTGCCA (site GTAACCTCTTG)”, the “recombinant barcode read abundance (log10)” value was found to be 0.983.

With “GTAACCTCTTGGGTTCTAACCTGTTGCCG (site GTAACCTCTAG)”, the “recombinant barcode read abundance (log10)” value worked out at 0.861.

In the case of “GTAACCTCTTGGGTTCTAACCTGTTGCCG (site GTAACCTCTCG)”, the “recombinant barcode read abundance (log10)” value came to 1.48.

Regarding “GTAACCTCTTGGGTTCTAACCTGTTGCCG (site GTAACCTCTGG)”, the “recombinant barcode read abundance (log10)” value is 0.0296.

Take “GTAACCTCTTGGGTTCTAACCTGTTGCCG (site GTAACCTCTTG)”: the “recombinant barcode read abundance (log10)” value turned out to be 0.0357.

For “GTAAGATCTTGGGTTCTAACCTGTTGCAC (site AGGCCCGCTCC)”, the “recombinant barcode read abundance (log10)” value amounted to 0.0896.

For “GTAAGATCTTGGGTTCTAACCTGTTGCAC (site GTAAGATCTGT)”, the “recombinant barcode read abundance (log10)” value is 2.12.

As to “GTAAGTACTTGGGTTCTAACCTGTTGCTT (site GTAAGAACTAA)”, the “recombinant barcode read abundance (log10)” value was 0.169.

Consider “GTAAGTACTTGGGTTCTAACCTGTTGCTT (site GTAAGCACTAA)”, for which the “recombinant barcode read abundance (log10)” value worked out at 0.233.

Regarding “GTAAGTACTTGGGTTCTAACCTGTTGCTT (site GTAAGGACTAA)”, the “recombinant barcode read abundance (log10)” value was 0.159.

On to “GTAAGTACTTGGGTTCTAACCTGTTGCTT (site GTAAGTACTAA)”, for which the “recombinant barcode read abundance (log10)” value was 0.221.

Regarding “GTAAGTCCTTGGGTTCTAACCTGTTGCGA (site GTAAGTCCTTC)”, the “recombinant barcode read abundance (log10)” value was 2.14.

With “GTAAGTCCTTGGGTTCTAACCTGTTGCGA (site GTGAGTCCTCC)”, the “recombinant barcode read abundance (log10)” value is 0.0113.

Take “GTAAGTGCTTGGGTTCTAACCTGTTGCCT (site GTAAATGCTAG)”: the “recombinant barcode read abundance (log10)” value is 0.0588.

Consider “GTAAGTGCTTGGGTTCTAACCTGTTGCCT (site GTAACTGCTAG)”, for which the “recombinant barcode read abundance (log10)” value was 0.0692.

“GTAAGTGCTTGGGTTCTAACCTGTTGCCT (site GTAAGTGCTAG)”: the “recombinant barcode read abundance (log10)” value was 1.28.

As for “GTAAGTGCTTGGGTTCTAACCTGTTGCCT (site GTAATTGCTAG)”, the “recombinant barcode read abundance (log10)” value stood at 0.187.

Consider “GTAATGACTTGGGTTCTAACCTGTTGCCT (site GAAATGACTAG)”, for which the “recombinant barcode read abundance (log10)” value amounted to 0.403.

For the sequence “GTAATGACTTGGGTTCTAACCTGTTGCCT (site GCAATGACTAG)”, the “recombinant barcode read abundance (log10)” value amounted to 0.194.

Consider “GTAATGACTTGGGTTCTAACCTGTTGCCT (site GGAATGACTAG)”, for which the “recombinant barcode read abundance (log10)” value is 0.105.

For the sequence “GTAATGACTTGGGTTCTAACCTGTTGCCT (site GTAATGACTAG)”, the “recombinant barcode read abundance (log10)” value turned out to be 1.6.

As to “GTAATGTCTTGGGTTCTAACCTGTTGCCT (site GAAATGTCTAG)”, the “recombinant barcode read abundance (log10)” value came out at 0.284.

Turning to “GTAATGTCTTGGGTTCTAACCTGTTGCCT (site GCAATGTCTAG)”, the “recombinant barcode read abundance (log10)” value came to 0.289.

Consider “GTAATGTCTTGGGTTCTAACCTGTTGCCT (site GGAATGTCTAG)”, for which the “recombinant barcode read abundance (log10)” value came out at 0.112.

For “GTAATGTCTTGGGTTCTAACCTGTTGCCT (site GTAATGTCTAG)”, the “recombinant barcode read abundance (log10)” value is 2.04.

Turning to “GTACAATCTTGGGTTCTAACCTGTTGCCT (site ATACAATCTAG)”, the “recombinant barcode read abundance (log10)” value is 0.947.

In the case of “GTACAATCTTGGGTTCTAACCTGTTGCCT (site CTACAATCTAG)”, the “recombinant barcode read abundance (log10)” value was 0.339.

On to “GTACAATCTTGGGTTCTAACCTGTTGCCT (site GTACAATCTAG)”, for which the “recombinant barcode read abundance (log10)” value was determined as 1.43.

Turning to “GTACAATCTTGGGTTCTAACCTGTTGCCT (site TTACAATCTAG)”, the “recombinant barcode read abundance (log10)” value came to 0.371.

“GTACCTACTTGGGTTCTAACCTGTTGCTA (site CGACCTACTTA)”: the “recombinant barcode read abundance (log10)” value is 0.0562.

Turning to “GTACCTACTTGGGTTCTAACCTGTTGCTA (site GTACCTACTTA)”, the “recombinant barcode read abundance (log10)” value stood at 1.33.

For “GTACGAGCTTGGGTTCTAACCTGTTGCCG (site GTACGAGCTCG)”, the “recombinant barcode read abundance (log10)” value was 0.848.

For “GTACGAGCTTGGGTTCTAACCTGTTGCCG (site GTGTGAGCTCG)”, the “recombinant barcode read abundance (log10)” value came to 0.38.

In the case of “GTACGTCCTTGGGTTCTAACCTGTTGCAT (site GTACGTCCTAA)”, the “recombinant barcode read abundance (log10)” value is 0.133.

On to “GTACGTCCTTGGGTTCTAACCTGTTGCAT (site GTACGTCCTAC)”, for which the “recombinant barcode read abundance (log10)” value came to 1.01.

In the case of “GTACGTCCTTGGGTTCTAACCTGTTGCAT (site GTACGTCCTAG)”, the “recombinant barcode read abundance (log10)” value turned out to be 0.52.

With “GTACGTCCTTGGGTTCTAACCTGTTGCAT (site GTACGTCCTAT)”, the “recombinant barcode read abundance (log10)” value amounted to 1.

Take “GTACGTCCTTGGGTTCTAACCTGTTGCCT (site GTACGTCCTAA)”: the “recombinant barcode read abundance (log10)” value came to 0.112.

In the case of “GTACGTCCTTGGGTTCTAACCTGTTGCCT (site GTACGTCCTAC)”, the “recombinant barcode read abundance (log10)” value was 0.352.

Consider “GTACGTCCTTGGGTTCTAACCTGTTGCCT (site GTACGTCCTAG)”, for which the “recombinant barcode read abundance (log10)” value was 0.482.

Take “GTACGTCCTTGGGTTCTAACCTGTTGCCT (site GTACGTCCTAT)”: the “recombinant barcode read abundance (log10)” value is 0.0848.

On to “GTACTACCTTGGGTTCTAACCTGTTGCCG (site ACGGAGACTAT)”, for which the “recombinant barcode read abundance (log10)” value was 0.198.

Consider “GTACTACCTTGGGTTCTAACCTGTTGCCG (site GTACTACCTCG)”, for which the “recombinant barcode read abundance (log10)” value is 1.14.

In the case of “GTACTCTCTTGGGTTCTAACCTGTTGCAG (site CCGTCAACTAG)”, the “recombinant barcode read abundance (log10)” value worked out at 0.0592.
